Source: US4548818A, “Composition and methods for the treatment of chronic obstructive airway disease and cardiac disease using 3-alkylxanthines” (priority 1978, dated 1985)
Read-outs that look alike come from different tables or passages of the source.

Tests used:
[1] = tested on: Guinea-pig heart; experiment: Isolated guinea-pig hearts (Langendorff), chronotropic potency; conditions: Table II; positive chronotropic potency; theophylline = 1
Procedure: From the bled guinea-pigs, the hearts were immediately removed and perfused with oxygenated Krebs solution at 37° according to Langendorff. The heart was mounted in a thermostatically controlled organ bath (25 ml) containing Krebs solution. A saline-filled, open-end polyethylene catheter was inserted into the right ventricle through the pulmonary artery. The catheter was fixed to the pulmonary artery by a ligature just above the valvular plane. It was connected to a pressure transducer (P23 AC), making it possible to record changes in intraventricular pressure. From these, the contraction frequency was obtained. Drugs were given as single bolus injections into the perfusion solution.
(§1) The left column lists molar potency ratios for bronchodilatation between theophylline and various xanthine compounds. Toxic symptoms occuring before death in mice receiving constant rate infusion of drug i.v. are accounted for in the middle column. […] The far right column indicates cardiotonic activity as positive chronotropic potency.

[2] = Description: as §1
[3] = tested on: Guinea-pig trachea; experiment: Isolated guinea-pig trachea (relaxation of carbacholine-contracted tracheal muscle); conditions: >1 more potent than theophylline; for Guinea-Pig trachea Potency rations of theophylline: Table II, molar potency ratio from EC50 values (50% maximum response), theophylline = 1 by definition, carbacholine 0.1 μg/ml; for Guinea-pig Tracheal Preparation Potency: Table III, potency ratio from EC50 values, theophyllin = 1 by definition
Procedure: Guinea-pigs of both sexes, weighing between 150 and 250 g, were killed by a blow on the head and bled. The trachea was removed and cut spirally yielding one or two preparations. The tracheal preparations were mounted in organ baths containing Krebs solution maintained at 37° C. and bubbled with carbogen (95% O2 +5% CO2). Isometric tension reflecting the activity in circular tracheal muscle was recorded by means of a force displacement transducer. Initial tension was set at 0.5 g which was the approximate basal tension kept during the experiment. Evaluation of relaxant effects was done when the preparations had contracted to a stable tension by the addition of carbacholine 0.1 μg/ml to the bath. […] After washing out the drugs the trachea resumed its basal tone and was left to stabilize for at least 15 min. before the next drug evaluation was performed. Between two evaluations of theophylline the effect of the test drug was examined and its EC50 value was compared with the mean of the previous and following EC50 values of theophylline.
as §1
The guinea-pig trachea were prepared as was discribed previously. Isomeric tension reflecting the activity in circular tracheal muscle was recorded by a force displacement transducer.

[4] = Acute toxicity studies in mice (intravenous and oral); type: in vivo, male NMRI mice; conditions: i.v. or oral, observed 14 days
Procedure: Male NMRI mice, weighing 20-26 g. starved for 6 h were used. The compounds, dissolved in 0.5M NaOH and 0.85% NaCl-solution (pH 10.6-12.1) were administered as follows:
(a) intravenously, 0.1 ml/10 g at an injection rate of 0.3 ml per minute
At least seven dose levels, doses increasing in a geometric progression with a factor 1.2, were examined. Each dose was given to 5 animals. […] The position of extremities in dead animals indicated whether they had died in convulsions or not.

[5] = constant rate i.v. infusion, type of convulsion as in the effects column
[6] = toxic symptoms before death, constant rate i.v. infusion

Compound | Guinea-Pig heart Potency ratios of theophylline, Chronotrop [1] | Convulsion test mice i.v., Death ([2]; constant rate i.v. infusion) | Guinea-Pig trachea Potency rations of theophylline [3] | Guinea-pig Tracheal Preparation Potency [3] | also measured
Cn1c(=O)c2c(ncn2C)n(C)c1=O [Caffeine, caffeine, reference compound] | 0.5 | 391.7 ± 17.7 mg/kg i.v. | 1 |  | Convulsion test mice i.v., number of animals with convulsions / animals tested [2, 5]: 20/20; Convulsion test mice i.v., number of animals with convulsions / animals tested ([2]; constant rate i.v. infusion, type of convulsion as in the effects column, listed as caffeine): 20 out of 20; Convulsion test mice i.v., Effects [2, 6]: tonic conv.; Convulsion test mice i.v., Effects ([2]; toxic symptoms before death, constant rate i.v. infusion, listed as caffeine): consistently produced tonic convulsions
CC(C)(C)Cn1c(=O)[nH]c(=O)c2[nH]cnc21 [D 4034, 3,7-dihydro-3-(2,2-dimethylpropyl)-1H-purine-2,6-dione] | 3 | 519.1 ± 16.6 mg/kg i.v. | 3 | 3.0 | 
Cc1nc2c([nH]1)c(=O)[nH]c(=O)n2CC(C)(C)C [D 4070, 3,7-dihydro-3-(2,2-dimethylpropyl)-8-methyl-1H-purine-2,6-dione] | 1.5 | 693.3 ± 22.2 mg/kg i.v. | 1.8 | 1.8 | Convulsion test mice i.v., Effects ([2]; mouse, in vivo, iv): loss of balance
O=c1[nH]c(=O)n(CCO)c2nc[nH]c12 [D 4077, reference compound] |  |  |  | 0.1 | 
CC(O)Cn1c(=O)[nH]c(=O)c2[nH]cnc21 (stereo not drawn) [D 4083, reference compound] |  |  |  | 0.1 | 
Cc1nc2c([nH]1)c(=O)[nH]c(=O)n2CC(C)O (stereo not drawn) [D 4125, reference compound] |  |  |  | 0.4 | 
O=c1[nH]c(=O)n(C2CCCC2)c2nc[nH]c12 [D 4132, 3-cyclopentyl-3,7-dihydro-1H-purine-2,6-dione] | 3.4 | 593 ± 21.9 mg/kg i.v. | 5.65 |  | 
Cc1nc2c([nH]1)c(=O)[nH]c(=O)n2C1CCCC1 [D 4134, 3-cyclopentyl-3,7-dihydro-8-methyl-1H-purine-2,6-dione] |  |  | 5.85 |  | 
Cc1nc2c([nH]1)c(=O)[nH]c(=O)n2CC1CCCCC1 [D 4137, 3,7-dihydro-8-methyl-3-cyclohexylmethyl-1H-purine-2,6-dione] | 10 | 493.1 ± 19.4 mg/kg i.v. | 4 |  | 
O=c1[nH]c(=O)n(CC2CCCCC2)c2nc[nH]c12 [D 4138, 3,7-dihydro-3-cyclohexylmethyl-1H-purine-2,6-dione] | 15 | 543.6 ± 31.7 mg/kg i.v. | 5 |  | 
O=c1[nH]c(=O)n(C2CC2)c2nc[nH]c12 [D 4161, 3-cyclopropyl-3,7-dihydro-1H-purine-2,6-dione] |  | 1030 ± 39.3 mg/kg i.v. | 0.5 |  | Convulsion test mice i.v., number of animals with convulsions / animals tested ([2]; mouse, in vivo, iv): 1/10
O=c1[nH]c(=O)n(C2CCC2)c2nc[nH]c12 [D 4164, 3-cyclobutyl-3,7-dihydro-1H-purine-2,6-dione] | 2.1 | 519.2 ± 16.86 mg/kg i.v. | 3.8 |  | Convulsion test mice i.v., number of animals with convulsions / animals tested ([2]; mouse, in vivo, iv): 3/10
Cc1nc2c([nH]1)c(=O)[nH]c(=O)n2CC(C)C [D 4169, 3,7-dihydro-8-methyl-3-(2-methylpropyl)-1H-purine-2,6-dione] |  |  |  | 3.3 | 
O=c1[nH]c(=O)n(CCCO)c2nc[nH]c12 [D 4184, reference compound] |  |  |  | 0.1 | 
Cn1c(=O)c2[nH]cnc2n(C)c1=O [Theophylline, theophylline, reference compound] |  | 446.3 ± 9.6 mg/kg i.v. |  | 1.0 | Convulsive activity in acute toxicity studies [4]: repeatedly shown to occur; Convulsion test mice i.v., number of animals with convulsions / animals tested [2, 5]: 30/30; Convulsion test mice i.v., number of animals with convulsions / animals tested ([2]; constant rate i.v. infusion, type of convulsion as in the effects column, listed as theophylline): 30 out of 30; Convulsion test mice i.v., Effects [2, 6]: tonic conv.; Convulsion test mice i.v., Effects ([2]; toxic symptoms before death, constant rate i.v. infusion, listed as theophylline): consistently produced tonic convulsions
